# Assay results: patent US6013278A (priority 1997, dated 2000)
# “Also recorded” adds a separate entry of the source.
# Columns and labels:
# BT-20 cells [1] = assay: Cellular uptake of free and liposomal antineoplastons into BT-20 cells (reduction of media concentration, HPLC); settings: for uptake rate on second and third days / cellular uptake (qualitative): free compound; for uptake rate on second and third days: day two and three vs first day; for cellular uptake (qualitative): time course up to 72 hours; for level of uptake associated with equivalent antineoplastic activity (IC50): at IC50 concentration (~0.8 mM CN, 15 mM PN); for dependence of cellular uptake on media concentration: end of eight hour incubation
# Description: The time-course and concentration dependency of the cellular uptake of free and liposomally formulated antineoplaston agents in Examples 2, 3 and 4 were assayed by monitoring reductions in media concentrations. The uptake of these antineoplaston agents were examined in BT-20 human breast cancer cells.
# Cellular uptake of free D- and free L-CN (3-phenylacetyl-amino-2, 6, piperidinedione) were investigated in BT-20 cells. Cells were plated in 200 μl of media (3,000 cells/well--96 well plates), and 24 or 96 hrs later the plating media was replaced with fresh media containing free CN at final concentrations of 100, 300, 500, 800 μM. The levels of CN remaining in the media were determined following 0, 2, 4, 6, 8, 24, 48 and 72 hours of incubation. When the cellular uptake of liposomal antineoplastons was assessed, the total levels of liposomes were equivalent across all levels of the test agents.
# At the indicated times after the addition of the test compound, the media was harvested, centrifuged (110 ×g; 10 min; 4° C.) and the supernatant stored at -70° C. until assayed using a validated HPLC method. For each test agent, all concentrations were tested at all time points and there were six replicate wells at each time point. Media from the replicate wells was pooled for the HPLC analysis. Compound levels were determined with at least two HPLC injections and the variance between injections was less than 10%.
# Cellular uptake of free PN was investigated in BT-20 cells.
# Cellular uptake of liposomal CN was investigated in BT-20 cells.
# cell growth [2] = assay: In vitro dose-response studies on individual components of antineoplaston therapy (cell growth); format: cell-based; settings: Homo sapiens; free compound; cell line not stated (uptake example in BT-20); read-out: IC50 (antineoplastic activity)
# [3] = tested on: human glioblastoma (U87) cells; assay: Antineoplastic effect of free and liposomal AS2-1, PG and PN (cell counts); settings: U-87 MG, 72 h, read-out: IC50 (concentration producing a half maximal antineoplastic effect)
# U87 cells = assay: Cellular uptake of free and liposomal PN and PG in U87 cells
# Description: Experiments with this cell line plated 3000 cells per well and following a four day interval to allow the cells to enter the exponential growth phase the test agents were added. The media was replaced on day three and cell counts were obtained at day 3 and 7.
# cell growth [4] = settings: in vitro, cited from earlier work
# [5] = tested on: BT-20 human breast cancer cells; assay: Uptake and intracellular levels of free and bound CN and PG/Iso-PG (intracellular metabolism of free and liposomal CN); format: in vitro ADME; settings: 24 hr
# Description: At selected times the cells were washed (3×with PBS), trypsinized, pooled, and homogenized in 200 μl of isotonic saline. […] Antineoplaston components or their derivatives found in the supernatant are considered to be unbound or "free", while antineoplaston agents in the pellet are thought to be "bound" to protein or cellular structures easily pelleted by low gravity centrifugation. […] To better understand the time course of the intracellular fate of liposomal CN, BT-20 cells were exposed as in Example 5 to liposomal CN for 1, 2 and 4 hours.
# BT-20 cells [6] = assay: Antineoplastic activity of free and liposomal CN (viable cell number, trypan blue); format: cell-based, human; settings: single administration, 800 uM; listed as free CN
# Description: To determine whether this effect leads to enhanced antineoplastic activity, the antineoplastic activity of free and liposomal CN was examined in BT-20 cells. […] Control cells in the liposomal condition received the equivalent levels of liposomes without CN. Following a 24, 48 or 72 hr incubation, cells from six replicate wells were pooled and the number of viable cells determined using trypan blue and a hemocytometer.
smiles,measurement,setting,value
O=C1CC[C@H](NC(=O)Cc2ccccc2)C(=O)N1 [L-CN],cellular uptake during the first six hours,BT-20 cells [1]; free D-CN vs free L-CN,more effectively than free D-CN
same,uptake rate on second and third days,BT-20 cells [1],the rate of uptake is diminished on the second and third days of the incubation
same,cellular uptake (qualitative),BT-20 cells [1],rapidly and extensively taken up
"O=C(O)Cc1ccccc1 [PN, phenylacetate]",IC50,cell growth [2],~15 mM
same,IC50,[3],~15 mM
same,uptake per cell,"U87 cells; 30 mM free PN, U87 cells, 3 day",50 pmol
same,uptake of free compound compared (PN vs PG),U87 cells; 3 day interval,equivalent and is concentration dependent
same,uptake per cell,"BT-20 cells [1]; BT-20 cells, 30 mM, comparison value",~ 55 pmole
same,level of uptake associated with equivalent antineoplastic activity (IC50),BT-20 cells [1],~ 30 pmoles/cell
same,dependence of cellular uptake on media concentration,BT-20 cells [1],linearly related to media concentration
same,cellular uptake (qualitative),BT-20 cells [1],concentration- and time-dependent take up
same,time to completion of uptake,"BT-20 cells [1]; high concentrations (e.g., 30 mM)",completed within the first two hours
same,cellular uptake,BT-20 cells [1]; initial media concentration 30 mM,~ 54 pmoles/BT-20 cell
same,cellular uptake,BT-20 cells [1]; media concentration 3.0 mM,~ 14 pmoles/BT-20 cell
"O=C1CCC(NC(=O)Cc2ccccc2)C(=O)N1 (centres unmarked) [CN, 3-phenylacetyl-amino-2,6, piperidinedione]",IC50,cell growth [2],~0.8 mM
same,suppression of cell growth,cell growth [4]; at ~0.8 mM,50%
same,antineoplastic activity on a molar basis,cell growth [4]; relative to other components,most potent antineoplastic activity
same,Uptake of CN,[5]; 800 μM CN (53 pmole/cell) added,43.2 pmole/cell
same,Free intracellular PG/Iso-PG,[5]; 800 μM CN added,36.7 pmole/cell
same,Free intracellular CN,"[5]; 800 μM, ND = Not detected",intact CN cannot be found inside the cells
same,cellular uptake by 72 hours,BT-20 cells [1]; 72 hours,approximating that produced by liposomal CN during a two hour incubation
same,level of uptake associated with equivalent antineoplastic activity (IC50),BT-20 cells [1],~ 30 pmoles/cell
same,dependence of cellular uptake on media concentration,BT-20 cells [1],linearly related to media concentration
same,antineoplastic activity / suppression of BT-20 cell growth,BT-20 cells [6],ineffective in suppressing BT-20 cell growth; also recorded: no antineoplastic activity
O=C1CC[C@@H](NC(=O)Cc2ccccc2)C(=O)N1 [D-CN],uptake rate on second and third days,BT-20 cells [1],do not exhibit this late stage reduction in CN uptake
same,cellular uptake (qualitative),BT-20 cells [1],rapidly and extensively taken up
